The values below come from US12268724B2, “Methods and compositions for the prevention or treatment of Barth Syndrome” (Stealth BioTherapeutics Inc., priority 2013, dated 2025).

Where no end group is shown, it is not given here. [ ]: non-standard residue; d: D form.

In data set [1] the test system is plasma membrane of several mammalian cell types. Conditions: cited from earlier work.
For the next data set, the system named is mitochondria. Nature of the data set: Electron microscopy of mitochondrial ultrastructure and organization in tissue from cardiac disease subject. The class given is in vivo. As for the experimental part: A tissue sample from a subject with Barth Syndrome and tissue samples from a subject with cardiac disease was prepared for electron microscopy imaging of the mitochondria using standards known in the art. […] FIG. 3.

A further data set has as its target mu-opioid receptor (Homo sapiens, UniProt P35372). Briefly: Mu-opioid receptor agonist activity. Conditions: stated in description, no test described.
In the next data set the test system is TAZ1. Briefly: TAZ1 mRNA expression in a dog model of heart failure (real-time PCR of LV tissue). Type of data set: in vivo. Conditions: dogs with microembolization-induced heart failure, 0.5 mg/kg once daily subcutaneous, three months, saline control 2.25-fold. How it is done:
Twelve dogs were subject to coronary microembolization-induced heart failure (LV ejection fraction ˜30%) as described above in Example 1. Subjects were randomized into D-Arg-2′6′-Dmt-Lys-Phe-NH2-treated and control groups for a three-month trial. Subjects received subcutaneous injections of D-Arg-2′6′-Dmt-Lys-Phe-NH2 (0.5 mg/kg once daily, n=6) or saline (Untreated-HF Control, n=6). RNA was prepared from LV tissue of all subjects at the end of the treatment phase and from the LV of six normal subject controls. Levels of TAZ1 mRNA were determined by real-time PCR. Changes in mRNA levels were expressed as fold reduction using the CT Method, with normalization to a […] (GAPDH) internal control.

mu-opioid receptor, sequence (P35372 whole entry, species assumed): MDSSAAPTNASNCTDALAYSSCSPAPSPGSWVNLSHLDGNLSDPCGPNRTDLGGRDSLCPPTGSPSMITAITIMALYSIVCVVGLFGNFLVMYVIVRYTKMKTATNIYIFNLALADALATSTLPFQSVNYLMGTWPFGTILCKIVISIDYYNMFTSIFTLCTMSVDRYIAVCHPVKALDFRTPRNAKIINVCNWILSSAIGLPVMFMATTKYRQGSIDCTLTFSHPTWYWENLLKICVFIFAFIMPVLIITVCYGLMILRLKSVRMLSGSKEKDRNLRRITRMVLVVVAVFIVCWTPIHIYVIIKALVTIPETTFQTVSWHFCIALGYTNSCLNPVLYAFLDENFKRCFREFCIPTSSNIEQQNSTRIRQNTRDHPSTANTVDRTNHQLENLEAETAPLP

As for 2′, 6′-Dmt-D-Arg-Phe-Lys-NH2, the “penetration of the plasma membrane” value in data set [1] was “readily penetrates the plasma membrane of several mammalian cell types in an energy-independent manner”. For the substance D-Arg-2′6′-Dmt-Lys-Phe-NH2, the “ultrastructure of the mitochondria (electron microscopy)” value in the data set with mitochondria (cardiac disease subject treated with an effective amount, FIG. 4A vs 4B) is on record as “ameliorated the abnormal features of the ultrastructure of the mitochondria”. Besides, in the data set with mitochondria (tissue from treated vs not treated cardiac disease subject, FIGS. 5A-5B), the “organization of the mitochondria (electron microscopy)” value is listed as “improved organization of the mitochondria”. Further, the “mu-opioid receptor agonist activity” value on mu-opioid receptor is “does not have mu-opioid receptor agonist activity”. Further, the “decrease in TAZ1 mRNA relative to normal subjects (fold reduction, CT Method, normalized to GAPDH)” value with TAZ1 is on record as 1.23 fold. For F[dR]FK-NH2, at mu-opioid receptor, the “mu-opioid receptor agonist activity” value is “does not have mu-opioid receptor agonist activity”.

Turning to Tyr-D-Arg-Phe-Lys-NH2, on mu-opioid receptor, the “mu-opioid receptor agonist activity” value was “has mu-opioid receptor agonist activity”.
